Test system: 616215-338-R-J1-PDC complex spheroids, viability % test/control
Experiment: Anticancer human tumor 616215-338-R-J1-PDC patient-derived colon adenocarcinoma cell line growth inhibition [CLK]
Conditions: for IC50: curve of first compound; for viability, T/C: stronger effect = lower value
Outline: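 Multi-cell-type spheroids combined patient-derived tumor cells with HUVEC endothelial cells and human mesenchymal stem cells. Paired agents were dosed in half-log steps down from about clinical Cmax, or from 10 microM where Cmax was unknown.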

[1] = second compound 0.0316 µM, first compound 0.0316 µM
[2] = second compound 0.0316 µM, first compound 0.1 µM
[3] = second compound 0.0316 µM, first compound 0.316 µM
[4] = second compound 0.0316 µM, first compound 1 µM
[5] = second compound 0.0316 µM, first compound 3.16 µM
[6] = second compound 0.0316 µM, first compound 10 µM
[7] = second compound 0.1 µM, first compound 0.0316 µM
[8] = second compound 0.1 µM, first compound 0.1 µM
[9] = second compound 0.1 µM, first compound 0.316 µM
[10] = second compound 0.1 µM, first compound 1 µM
[11] = second compound 0.1 µM, first compound 3.16 µM
[12] = second compound 0.1 µM, first compound 10 µM
[13] = second compound 0.316 µM, first compound 0.0316 µM
[14] = second compound 0.316 µM, first compound 0.1 µM
[15] = second compound 0.316 µM, first compound 0.316 µM
[16] = second compound 0.316 µM, first compound 1 µM
[17] = second compound 0.316 µM, first compound 3.16 µM
[18] = second compound 0.316 µM, first compound 10 µM
[19] = second compound 1 µM, first compound 0.0316 µM
[20] = second compound 1 µM, first compound 0.1 µM
[21] = second compound 1 µM, first compound 0.316 µM
[22] = second compound 1 µM, first compound 1 µM
[23] = second compound 1 µM, first compound 3.16 µM
[24] = second compound 1 µM, first compound 10 µM
[25] = second compound 3.16 µM, first compound 0.0316 µM
[26] = second compound 3.16 µM, first compound 0.1 µM
[27] = second compound 3.16 µM, first compound 0.316 µM
[28] = second compound 3.16 µM, first compound 1 µM
[29] = second compound 3.16 µM, first compound 3.16 µM
[30] = second compound 3.16 µM, first compound 10 µM
[31] = second compound 10 µM, first compound 0.0316 µM
[32] = second compound 10 µM, first compound 0.1 µM
[33] = second compound 10 µM, first compound 0.316 µM
[34] = second compound 10 µM, first compound 1 µM
[35] = second compound 10 µM, first compound 3.16 µM
[36] = second compound 10 µM, first compound 10 µM
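Further: spheroids exposed to agents for 7 days.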
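Wherever viability, T/C is given: 100% = DMSO vehicle wells.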

With `CC(C)CC(NC(=O)C(Cc1ccccc1)NC(=O)c1cnccn1)B(O)O` (stereo unspecified) + CNC(=O)c1ccc(Nc2nc(OC3CCCC3)c3c(-c4ccc5nc(C)oc5c4)c[nH]c3n2)c(OC)c1 the IC50 (second compound 0.0316 µM) was 5.4 nM, the IC50 (second compound 0.1 µM) was 4.28 nM and the IC50 (second compound 0.316 µM) was < 0.949 nM. For the same molecule, the IC50 (second compound 1 µM) was < 0.949 nM, the IC50 (second compound 3.16 µM) was < 0.949 nM and the IC50 (second compound 10 µM) was < 0.949 nM. The viability, T/C (second compound 0.0316 µM, first compound 0.000949 µM) was 93.4%, the viability, T/C (second compound 0.0316 µM, first compound 0.003 µM) was 110% and the viability, T/C (second compound 0.0316 µM, first compound 0.00949 µM) was 0.37%. It also gave a viability, T/C (second compound 0.0316 µM, first compound 0.03 µM) of 0.24%, a viability, T/C (second compound 0.0316 µM, first compound 0.0949 µM) of 0.24% and a viability, T/C (second compound 0.0316 µM, first compound 0.3 µM) of 1.23%. The viability, T/C (second compound 0.1 µM, first compound 0.000949 µM) was 55.6%, the viability, T/C (second compound 0.1 µM, first compound 0.003 µM) was 88.9% and the viability, T/C (second compound 0.1 µM, first compound 0.00949 µM) was 0.21%. The viability, T/C (second compound 0.1 µM, first compound 0.03 µM) was 0.22%, the viability, T/C (second compound 0.1 µM, first compound 0.0949 µM) was 0.18% and the viability, T/C (second compound 0.1 µM, first compound 0.3 µM) was 0.5%. The viability, T/C (second compound 0.316 µM, first compound 0.000949 µM) was 45.9%, the viability, T/C (second compound 0.316 µM, first compound 0.003 µM) was 38.4% and the viability, T/C (second compound 0.316 µM, first compound 0.00949 µM) was 0.2%. The viability, T/C (second compound 0.316 µM, first compound 0.03 µM) was 0.18%, the viability, T/C (second compound 0.316 µM, first compound 0.0949 µM) was 0.15% and the viability, T/C (second compound 0.316 µM, first compound 0.3 µM) was 0.86%. The viability, T/C (second compound 1 µM, first compound 0.000949 µM) was 45.3%, the viability, T/C (second compound 1 µM, first compound 0.003 µM) was 29.9% and the viability, T/C (second compound 1 µM, first compound 0.00949 µM) was 0.19%. It also gave a viability, T/C (second compound 1 µM, first compound 0.03 µM) of 0.15%, a viability, T/C (second compound 1 µM, first compound 0.0949 µM) of 1.71% and a viability, T/C (second compound 1 µM, first compound 0.3 µM) of 1.14%. The viability, T/C (second compound 3.16 µM, first compound 0.000949 µM) was 45.7%, the viability, T/C (second compound 3.16 µM, first compound 0.003 µM) was 18.6% and the viability, T/C (second compound 3.16 µM, first compound 0.00949 µM) was 0.16%. For the same molecule, the viability, T/C (second compound 3.16 µM, first compound 0.03 µM) was 0.16%, the viability, T/C (second compound 3.16 µM, first compound 0.0949 µM) was 0.18% and the viability, T/C (second compound 3.16 µM, first compound 0.3 µM) was 1.5%. The viability, T/C (second compound 10 µM, first compound 0.000949 µM) was 45.9%, the viability, T/C (second compound 10 µM, first compound 0.003 µM) was 19.5% and the viability, T/C (second compound 10 µM, first compound 0.00949 µM) was 0.22%. For the same molecule, the viability, T/C (second compound 10 µM, first compound 0.03 µM) was 0.18%, the viability, T/C (second compound 10 µM, first compound 0.0949 µM) was 1.53% and the viability, T/C (second compound 10 µM, first compound 0.3 µM) was 2.83%.
In the case of `CC1(C)CCC(CN2CCN(c3ccc(C(=O)NS(=O)(=O)c4ccc(NCC5CCOCC5)c([N+](=O)[O-])c4)c(Oc4cnc5[nH]ccc5c4)c3)CC2)=C(c2ccc(Cl)cc2)C1` + CNC(=O)c1ccc(Nc2nc(OC3CCCC3)c3c(-c4ccc5nc(C)oc5c4)c[nH]c3n2)c(OC)c1, the IC50 (second compound 0.0316 µM) is reported as > 10000 nM, the IC50 (second compound 0.1 µM) is reported as 416 nM and the IC50 (second compound 0.316 µM) is reported as < 31.6 nM. For the same molecule, the IC50 (second compound 1 µM) was < 31.6 nM, the IC50 (second compound 3.16 µM) was < 31.6 nM and the IC50 (second compound 10 µM) was < 31.6 nM. It also gave a viability, T/C [1] of 101%, a viability, T/C [2] of 99.1% and a viability, T/C [3] of 92.8%. For the same molecule, the viability, T/C [4] was 100%, the viability, T/C [5] was 80% and the viability, T/C [6] was 91.5%. For the same molecule, the viability, T/C [7] was 55.3%, the viability, T/C [8] was 50.6% and the viability, T/C [9] was 50.9%. For the same molecule, the viability, T/C [10] was 42.8%, the viability, T/C [11] was 18.5% and the viability, T/C [12] was 56.7%. The viability, T/C [13] was 46.6%, the viability, T/C [14] was 49% and the viability, T/C [15] was 45.4%. For the same molecule, the viability, T/C [16] was 33.9%, the viability, T/C [17] was 21.2% and the viability, T/C [18] was 45.7%. For the same molecule, the viability, T/C [19] was 50.9%, the viability, T/C [20] was 48.2% and the viability, T/C [21] was 46.2%. It also gave a viability, T/C [22] of 35.9%, a viability, T/C [23] of 20.5% and a viability, T/C [24] of 48.9%. It also gave a viability, T/C [25] of 38.8%, a viability, T/C [26] of 42.5% and a viability, T/C [27] of 44.6%. It also gave a viability, T/C [28] of 33.3%, a viability, T/C [29] of 24.8% and a viability, T/C [30] of 50.7%. The viability, T/C [31] was 36.3%, the viability, T/C [32] was 42% and the viability, T/C [33] was 41.7%. The viability, T/C [34] was 41%, the viability, T/C [35] was 27.2% and the viability, T/C [36] was 41.7%.
In the case of `CC1COCCN1c1cc(C2(S(C)(=N)=O)CC2)nc(-c2ccnc3[nH]ccc23)n1` (stereo unspecified) + CNC(=O)c1ccc(Nc2nc(OC3CCCC3)c3c(-c4ccc5nc(C)oc5c4)c[nH]c3n2)c(OC)c1, the IC50 (second compound 0.0316 µM) is reported as > 10000 nM, the IC50 (second compound 0.1 µM) is reported as 1220 nM and the IC50 (second compound 0.316 µM) is reported as < 31.6 nM. For the same molecule, the IC50 (second compound 1 µM) was < 31.6 nM, the IC50 (second compound 3.16 µM) was 42 nM and the IC50 (second compound 10 µM) was < 31.6 nM. For the same molecule, the viability, T/C [1] was 95.5%, the viability, T/C [2] was 91.2% and the viability, T/C [3] was 90.9%. The viability, T/C [4] was 98.4%, the viability, T/C [5] was 101% and the viability, T/C [6] was 78.7%. For the same molecule, the viability, T/C [7] was 53.4%, the viability, T/C [8] was 57.4% and the viability, T/C [9] was 52.6%. The viability, T/C [10] was 51.8%, the viability, T/C [11] was 44.8% and the viability, T/C [12] was 36.6%. It also gave a viability, T/C [13] of 48.3%, a viability, T/C [14] of 45.4% and a viability, T/C [15] of 51.5%. For the same molecule, the viability, T/C [16] was 46.7%, the viability, T/C [17] was 56.9% and the viability, T/C [18] was 36.1%. For the same molecule, the viability, T/C [19] was 54.5%, the viability, T/C [20] was 44% and the viability, T/C [21] was 47%. For the same molecule, the viability, T/C [22] was 46.4%, the viability, T/C [23] was 44.5% and the viability, T/C [24] was 31.7%. The viability, T/C [25] was 49.7%, the viability, T/C [26] was 49.6% and the viability, T/C [27] was 46.3%. The viability, T/C [28] was 39.8%, the viability, T/C [29] was 37.7% and the viability, T/C [30] was 29.5%. For the same molecule, the viability, T/C [31] was 43.1%, the viability, T/C [32] was 37.4% and the viability, T/C [33] was 40.9%. It also gave a viability, T/C [34] of 36.9%, a viability, T/C [35] of 33.3% and a viability, T/C [36] of 30.9%.

Reference: PubChem BioAssay AID2060610 (Molecular Pharmacology Branch, DTP, NCI, 2025)
